Measurements: patent US4670562A, “Dihydropyrrolo[1,2-b]isoquinolinedione oximes” (priority 1986, dated 1987)
Read-outs that look alike come from different tables or passages of the source.

Target: acetylcholinesterase (Homo sapiens, UniProt P22303)
Assay: Cholinesterase Inhibition Assay (photometric method of Ellman et al.)
Format: biochemical
[1] = photometric method of Ellman et al., read-out: Cholinesterase Inhibition IC50

Chain of acetylcholinesterase (P22303 32-614): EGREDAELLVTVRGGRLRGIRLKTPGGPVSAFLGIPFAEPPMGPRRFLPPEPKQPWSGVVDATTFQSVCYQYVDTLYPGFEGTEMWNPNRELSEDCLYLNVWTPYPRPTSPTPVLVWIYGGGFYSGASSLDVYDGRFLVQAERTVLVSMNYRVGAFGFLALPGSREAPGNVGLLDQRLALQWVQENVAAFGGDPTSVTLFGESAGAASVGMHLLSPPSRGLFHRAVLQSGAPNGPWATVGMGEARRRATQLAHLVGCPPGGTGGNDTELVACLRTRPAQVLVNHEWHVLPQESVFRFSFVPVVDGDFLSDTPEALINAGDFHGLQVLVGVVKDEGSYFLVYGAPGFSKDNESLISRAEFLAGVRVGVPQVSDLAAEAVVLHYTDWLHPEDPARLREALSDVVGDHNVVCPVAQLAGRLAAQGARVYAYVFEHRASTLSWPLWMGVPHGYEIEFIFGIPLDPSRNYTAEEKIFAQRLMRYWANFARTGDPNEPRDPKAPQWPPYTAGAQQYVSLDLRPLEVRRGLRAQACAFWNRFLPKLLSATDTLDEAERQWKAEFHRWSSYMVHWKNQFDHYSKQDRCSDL

Compound	IC50 [1] [µM]	IC50 [µM]
c1ccc2c3c(ncc2c1)CCCN3 [1,2,3,4-Tetrahydrobenzo[c]-1,5-naphthyridine]	61	–
O=C(Cc1ccccc1)N1CCCc2ncc3ccccc3c21 [1-(Phenylacetyl)-1,2,3,4-tetrahydrobenzo[c]-1,5-naphthyridine]	320	–
CN1CCN(C2=Nc3c(ncc4ccccc34)CC2)CC1 [3,4-Dihydro-2-(4-methyl-1-piperazinyl)benzo[c]-1,5-naphthyridine hemihydrate]	–	840
